Experiments:
[1] = system: human GM-CSF treated MDSC; assay: Mixed lymphocyte reaction with healthy donors' GM-CSF treated MDSC; assay type: cell-based; settings: for T cell proliferation in MLR with TLR-L treated MDSC: LPS 10 μg/ml, R848 5 μg/ml, Poly I:C 10 μg/ml, 24 h co-culture with added human iNKT cells, DC:MDSC 1:1
[2] = system: CD11b+ cells from IAV infected individuals; assay type: cell-based, human; settings: L-NMMA and NOHA added together to alloreactive PBL; data not shown
[3] = system: lung derived MDSC (CD11b+ Gr-1+ cells) from PR8 infected mice; assay type: cell-based, mouse
BM derived MDSC = assay: OT-I proliferation assay with BM derived MDSC; assay type: cell-based, mouse; settings: for MDSC suppressive activity on CFSE labelled OT-I proliferation: MDSC incubated 48 h with TLR agonist, in the absence of iNKT cells
CD11bCD15 positive cells = assay: Melan-A priming experiments with CD11bCD15 positive cells from melanoma patients; assay type: cell-based, human; settings: CD11bCD15 positive cells pulsed with alphaGalCer 100 ng or Threitolceramide 200 ng
Description: CD11bCD15 positive cells were pulsed with either alphaGalCer (100 ng) or Threitolceramide (200 ng) for 2 hours and then incubated with autologous iNKT cells overnight before adding autologous DC pulsed with Melan-A26-35 peptide and autologous CD11bCD15 cell depleted total leukocytes.
Experiments in FIG. 29 were carried out using the same conditions as shown in the right column of FIG. 28 (i.e. in the presence of iNKT cells and alphaGalCer pulsed CD11bCD15 positive cells) in the presence of either blocking anti CD1d (middle column) or blocking anti CD40 (right column) antibodies.
In order to assess whether secretion of IL-10 is contributing to the suppressive activity of CD11bCD15 positive cells, expansion of Melan-A26-35 specific T cell responses as assessed in the presence or absence of blocking anti 11-10 receptor antibodies. In the left hand panel of FIG. 31, expansion of Melan-A26-35 specific T cells was assessed using total leukocytes from which CD11b-CD15+ cells were removed (2.33%). Addition of CD11bCD15 positive cells reduced the frequency of Melan-A26-35 specific T cells (0.83%) (central panel).
Purification of CD11b/CD15+ cells. Since CD15 CD11b positive cells have granulocyte density, it is important to purify them without using density gradients, such as Ficol. Red blood cells are lysed from whole blood, using red lysis cell buffer and anti CD11b/CD15 specific antibodies are added to the leukocytes for FACS guided cell sorting.
Melan-A priming experiments. DCs were generated by culturing monocytes for 4 days in RPMI/10% FCS supplemented with 50 ng/ml GM-CSF (Pepro-tech) and 1,000 U/ml IL-4 (Salio, M., et al. 2007. Proc. Natl. Acad. Sci. U.S.A. 104:20490-20495). […] After 2 weeks, cells were stained with HLA-A2 tetramers loaded with melan-A26-35 peptide and anti CD8.
Harnessing iNKT cells. The protocol to purify Cdl lbCd15 cells and differentiate DC is similar to the protocol described earlier. Cdl lbCd15 cells were pulsed with either alphaGalCer (100 ng) or with threitolceramide (200 ng) and then incubated with iNKT cells for 12 hours. Cells were then washed pulsed with the melan-A26-35 peptide and incubated with total leukocytes. After 2 weeks in culture, cells were stained with HLA-A2 melan-A tetramers and anti-CD8 antibodies.

[4] = system: EG7 cells (EL4 tumor cell line transfected with ovalbumin cDNA); set-up: species or system C57 BL/6 mice; settings: mouse, in vivo, iv
iNKT cells = assay: IFN-γ and IL-4 release from iNKT cells incubated with treated MDSC; assay type: cell-based, mouse; settings: WT MDSC treated with TLR agonist, iNKT cells incubated 48 h
Description: (B) IFN-γ and IL-4 release from iNKT cells incubated for 48 h with CpG or Poly I:C treated MDSC, in the presence or absence of anti CD1d blocking antibody. Data represent the average of 3 replicates ±S.D and are representative of 3 separate experiments.
(A) iNKT cells derived from WT mice fail to produce IFN-γ when incubated with TLR-L matured MDSC derived from hexβ^−/− mice. Analysis of IFN-γ secretion by iNKT cells, derived from WT mice, co-incubated with TLR-L treated MDSC derived from either hexβ^−/− or iGb3S^−/− mice. To assess the role of CD1d molecules expressed on the surface of MDSC, TLR-L treated MDSC were also incubated with blocking […].
Isolation and culture of mouse MDSC. […]
Isolation of mouse iNKT cells. […] The % of iNKT cells was measured by CD1d/α-GalCer tetramer staining and ranged from ˜14% to ˜60%. […]
ELISA: 1) Cytokines. […] The amount of IL-12p40, IFN-γ and IL4 was measured using an ELISA kit (eBioscience). […] Sera from PR8 infected mice were collected 6 days post infection and antibody titers were determined by coating 96-well maxisorb NUNC plates with 5 ng/ml of PR8 virus overnight at 4° C. […] Color reactions were developed with 3,3′,5-5′-Tetramethylbenzidine (TMB) (Sigma-Aldrich) and the absorbance was measured at 490 nm.

CNC(=N)NCCC[C@H](N)C(=O)O [L-NMMA, N^G-monomethyl-L-arginine]
MLR suppressive activity of healthy donors GM-CSF treated MDSC ([1]; NOHA and L-NMMA added together): can be blocked | PBL proliferation in MLR in the absence of MDSC ([1]; NOHA and L-NMMA added together, no MDSC, data not shown): does not affect PBL proliferation | T cell proliferation in the absence of CD11b+ cells [2]: did not affect T cell proliferation | OT-I proliferation in the absence of MDSC ([3]; L-NMMA and NOHA added together to OT-I splenocytes, no MDSC, data not shown): did not affect OT-I proliferation | suppressive activity of MDSC from PR8 infected mice on CFSE labelled OT-I proliferation ([3]; […], L-NMMA and NOHA used together (500 μM)): is reduced

CCCCN1C[C@H](O)[C@@H](O)[C@@H](O)[C@H]1CO [NB-DGJ, N-butyldeoxygalactonojirimycin]
ability of iNKT cells to relieve the suppressive activity of MDSC (CFSE labelled OT-I proliferation) (BM derived MDSC; CpG and poly I:C treated MDSC, increasing concentrations of NB-DGJ, incubated with iNKT cells 24 h): reduced the ability of iNKT cells to relieve the suppressive activity of MDSC | OT-I proliferation in absence of MDSC (BM derived MDSC; NB-DGJ added to OT-I splenocytes, no MDSC, data not shown): did not affect OT-I proliferation

CCOCc1nc2c(N)nc3ccccc3c2n1CC(C)(C)O [R848]
T cell proliferation in MLR with TLR-L treated MDSC [1]: rescues T cell proliferation | MDSC suppressive activity on CFSE labelled OT-I proliferation (BM derived MDSC): partially relieved

CCCCCCCCCCCCCCCCCCCCCCCCCC(=O)N[C@@H](COC[C@H](O)[C@@H](O)CO)[C@H](O)[C@H](O)CCCCCCCCCCCCCC [threitolceramide]
frequency of Melan-A26-35 specific T cells (CD11bCD15 positive cells; in the absence of added iNKT cells, unpulsed 0.34%): 0.29% | frequency of Melan-A26-35 specific T cells (CD11bCD15 positive cells; with addition of autologous iNKT cells): 2.87% | frequency of MDSCs (CD11b+Gr1+ positive cells) [4]: lower frequency | frequency of Ova specific T cell responses (H-2Kb tetramer staining) [4]: higher frequency | tumor size / tumor regression [4]: Tumour regression

poly I:C
activation of iNKT cells by treated MDSC (IFNγ and IL-4 secretion) (iNKT cells): capable of activating iNKT cells | T cell proliferation in MLR with TLR-L treated MDSC [1]: rescues T cell proliferation | MDSC suppressive activity on CFSE labelled OT-I proliferation (BM derived MDSC): partially relieved

Reference: patent US20110293658A1, “USE OF INKT OR TLR AGONISTS FOR PROTECTING AGAINST OR TREATING A DISEASE SUCH AS ACUTE INFECTION OR CANCER” (LUDWIG INSTITUTE FOR CANCER RESEARCH LTD., priority 2008, published 2011)
